19 compounds from ChEMBL document CHEMBL4340551, “Design, synthesis and preliminary bioactivity studies of indomethacin derivatives as Bcl-2/Mcl-1 dual inhibitors” (Bioorg Med Chem, 2019) can be followed below.

The target in test [1] is T1, Apoptosis regulator Bcl-2 (Homo sapiens, UniProt P10415). The test can be described thus: Inhibition of 5-FAM-tagged Bid-BH3 peptide binding to Bcl2 (unknown origin) by fluorescence polarization assay. For orientation: In fluorescence polarisation assays a small probe gives low polarisation when free and higher when bound to something large.
T1 sequence (P10415 whole entry): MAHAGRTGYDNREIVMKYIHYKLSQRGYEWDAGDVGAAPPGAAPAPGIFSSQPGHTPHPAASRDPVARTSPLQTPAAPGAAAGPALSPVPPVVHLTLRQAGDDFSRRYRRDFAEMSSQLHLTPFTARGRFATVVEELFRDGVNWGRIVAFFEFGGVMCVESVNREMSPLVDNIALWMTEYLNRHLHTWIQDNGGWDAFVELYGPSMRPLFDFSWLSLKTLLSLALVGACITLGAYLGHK
Test [2] deals with T1, Apoptosis regulator Bcl-2. The test can be described thus: Potency index, ratio of Ki for UMI77 to Ki for test compound for inhibition of 5-FAM-tagged Bid-BH3 peptide binding to Bcl2 (unknown origin) by fluorescence polarization assay.
Test [3] addresses T1, Apoptosis regulator Bcl-2. The test can be described thus: Potency index, ratio of Ki for WL276 to Ki for test compound for inhibition of 5-FAM-tagged Bid-BH3 peptide binding to Bcl2 (unknown origin) by fluorescence polarization assay.

For orientation: Ki means a dissociation constant, usually derived from enzyme kinetics or from competition with a known ligand.

Where only a bound is given, the exact number is not on record here.

Consider `COc1ccc2c(c1)c(CC(=O)N[C@@H](Cc1ccccc1)C(=O)NS(=O)(=O)c1ccc(Br)cc1)c(C)n2C(=O)c1ccc(Cl)cc1`, for which, in test [1] (read-out: Ki), the Ki was more than 5000 nM.

Consider `COc1ccc2c(c1)c(CC(=O)N[C@@H](Cc1ccc(OCc3ccccc3)cc1)C(=O)NS(=O)(=O)c1ccc(Br)cc1)c(C)n2C(=O)c1ccc(Cl)cc1`, for which the values for the Ratio Ki in test [2] and in test [3] were 5 to 6 and 2 to 3, respectively. Moreover, the inhibition constant (Ki) in test [1] (read-out: Ki) was found to be 530 nM.

Consider `COc1ccc2c(c1)c(CC(=O)N[C@@H](Cc1ccc(OCc3ccccc3)cc1)C(=O)NS(=O)(=O)c1ccc(Cl)c([N+](=O)[O-])c1)c(C)n2C(=O)c1ccc(Cl)cc1`, for which the Ratio Ki in test [2] lay in the range of 5 to 6; in test [3] it was 2 to 3. In addition, the inhibition constant (Ki) in test [1] (read-out: Ki) was 520 nM.

Take `COc1ccc2c(c1)c(CC(=O)N[C@@H](Cc1ccc(OC(C)C)cc1)C(=O)NS(=O)(=O)c1ccc(Cl)c([N+](=O)[O-])c1)c(C)n2C(=O)c1ccc(Cl)cc1`: the inhibition constant (Ki) in test [1] (read-out: Ki) is more than 5000 nM.

Regarding `COc1ccc2c(c1)c(CC(=O)N[C@@H](C)C(=O)NS(=O)(=O)c1ccc(Cl)c([N+](=O)[O-])c1)c(C)n2C(=O)c1ccc(Cl)cc1`, the inhibition constant Ki entry in test [1] is “Not Active”.

As for `COc1ccc2c(c1)c(CC(=O)N[C@H](C(=O)NS(=O)(=O)c1ccc(Cl)c([N+](=O)[O-])c1)C(C)C)c(C)n2C(=O)c1ccc(Cl)cc1`, the Ki result in test [1] is on record as “Not Active”.

With `COc1ccc2c(c1)c(CC(=O)NCC(=O)NS(=O)(=O)c1ccc(Br)cc1)c(C)n2C(=O)c1ccc(Cl)cc1`, the Ki result in test [1] is “Not Active”.

In the case of `COc1ccc(C[C@H](NC(=O)Cc2c(C)n(C(=O)c3ccc(Cl)cc3)c3ccc(OC)cc23)C(=O)NS(=O)(=O)c2ccc(Cl)c([N+](=O)[O-])c2)cc1`, the Ki in test [1] (read-out: Ki) was more than 5000 nM.

In the case of `COc1ccc2c(c1)c(CC(=O)N[C@@H](Cc1ccc(OCc3ccccc3C#N)cc1)C(=O)NS(=O)(=O)c1ccc(Cl)c([N+](=O)[O-])c1)c(C)n2C(=O)c1ccc(Cl)cc1`, the results for the Ratio Ki in test [2] and in test [3] were 5 to 6 and 2 to 3, respectively. Moreover, the Ki in test [1] (read-out: Ki) was 670 nM.

As to `COc1ccc2c(c1)c(CC(=O)N[C@@H](Cc1ccc(OCc3ccc([N+](=O)[O-])cc3)cc1)C(=O)NS(=O)(=O)c1ccc(Br)cc1)c(C)n2C(=O)c1ccc(Cl)cc1`, the Ratio Ki in test [2] was 5 to 6; in test [3] it was 2 to 3. Also, the Ki in test [1] (read-out: Ki) was found to be 630 nM.

`COc1ccc2c(c1)c(CC(=O)N[C@@H](CC(C)C)C(=O)NS(=O)(=O)c1ccc(Cl)c([N+](=O)[O-])c1)c(C)n2C(=O)c1ccc(Cl)cc1`: the Ki in test [1] (read-out: Ki) was more than 5000 nM.

`COc1ccc2c(c1)c(CC(=O)N[C@@H](Cc1ccccc1)C(=O)NS(=O)(=O)c1ccc(Cl)c([N+](=O)[O-])c1)c(C)n2C(=O)c1ccc(Cl)cc1`: in test [1] (read-out: Ki), the inhibition constant Ki is more than 5000 nM.

With `CCC(C)[C@H](NC(=O)Cc1c(C)n(C(=O)c2ccc(Cl)cc2)c2ccc(OC)cc12)C(=O)NS(=O)(=O)c1ccc(Cl)c([N+](=O)[O-])c1` (some centres not stated), the inhibitory constant (Ki) in test [1] (read-out: Ki) is 4900 nM.

As to `COc1ccc2c(c1)c(CC(=O)N[C@@H](Cc1ccc(Br)cc1)C(=O)NS(=O)(=O)c1ccc(Cl)c([N+](=O)[O-])c1)c(C)n2C(=O)c1ccc(Cl)cc1`, the inhibition constant (Ki) in test [1] (read-out: Ki) is 590 nM.

On to `CCCOc1ccc(C[C@H](NC(=O)Cc2c(C)n(C(=O)c3ccc(Cl)cc3)c3ccc(OC)cc23)C(=O)NS(=O)(=O)c2ccc(Cl)c([N+](=O)[O-])c2)cc1`, for which the Ki in test [1] (read-out: Ki) amounted to 1300 nM.

Turning to `COc1ccc2c(c1)c(CC(=O)N[C@@H](Cc1c[nH]c3ccccc13)C(=O)NS(=O)(=O)c1ccc(Cl)c([N+](=O)[O-])c1)c(C)n2C(=O)c1ccc(Cl)cc1`, the inhibition constant Ki in test [1] (read-out: Ki) is more than 5000 nM.

Turning to `COc1ccc2c(c1)c(CC(=O)N[C@@H](CCSC)C(=O)NS(=O)(=O)c1ccc(Cl)c([N+](=O)[O-])c1)c(C)n2C(=O)c1ccc(Cl)cc1`, in test [1] (read-out: Ki), the inhibition constant Ki was more than 5000 nM.

Turning to `COc1ccc2c(c1)c(CC(=O)N[C@@H](Cc1ccccc1)C(=O)NS(=O)(=O)c1ccccc1)c(C)n2C(=O)c1ccc(Cl)cc1`, the Ki entry in test [1] is given as “Not Active”.

Turning to `COc1ccc(C[C@H](NC(=O)Cc2c(C)n(C(=O)c3ccc(Cl)cc3)c3ccc(OC)cc23)C(=O)NS(=O)(=O)c2ccc(Br)cc2)cc1`, the Ki in test [1] (read-out: Ki) is more than 5000 nM.
